Reference: patent US4990518A, “Pharmacologically active heteroaryl substituted imidazo (4,5-c) pyridines” (G. D. Searle & Co., priority 1989, dated 1991)

Legend:
[1] = molecular target: PAF receptor (Human Platelet Membrane Receptors) (Homo sapiens, UniProt P25105)
Method: Inhibition of ^3 H-PAF Binding to Human Platelet Membrane Receptors
Receptor Preparation: Ten units of in-dated human packed platelets, each containing 45-65 ml platelet rich-plasma, were purchased from a commercial blood bank. Disposable plasticware was used throughout for receptor preparation. The units were pooled and a 1 ml aliquot was removed for determination of platelet concentration, using a Coulter Counter. […] Protein content was determined by a fluorescamine protein assay.
Assay Methods: Receptor Characterization--Each receptor preparation was evaluated to determine the number of receptor populations, the number of PAF receptor equivalents/mg protein and the dissociation constant (KD) for PAF binding. This required 2-3 experiments in which the protein concentration was held constant and the ^3 H-PAF ligand concentration was varied from approximately 0.10-2.5 nM and the data was analyzed by Scatchard methodology. […]
Assay Methods: Routine Assay of Compounds--The compounds were weighed precisely and solubilized in quantities of DMSO such that a 5 μl aliquot in the incubate would deliver the desired compound concentration. Compounds tested for the first time in this assay were evaluated at a concentration of 50 μM in the incubation medium. […]

[2] = system: PAF-induced secretion of [^3 H]serotonin-labeled rabbit platelets; experiment: PAF-induced platelet secretion ([^3 H]serotonin); assay type: cell-based; details: Oryctolagus cuniculus, washed rabbit platelets, antagonist 60 sec before PAF (0.2 nM to 0.2 μM), read 60 sec after PAF
Method: (§1) PAF-induced platelet aggregation and secretion: Washed, [^3 H]serotonin labeled rabbit platelets were prepared as previously described in COX, C. P , J. LINDEN and S. I. SAID: VIP elevates platelet cyclic AMP (cAMP) levels and inhibits in vitro platelet activation induced by platelet-activating factor (PAF). Peptides 5:25-28, 1984, and maintained in an atmosphere of 5% CO2 at 37° C. until used in the bioassay. Aliquots of platelets (2.5×10^8 /ml) were incubated with either an antagonist of PAF or the appropriate vehicle for 60 sec prior to the addition of PAF (0.2 nM to 0.2 μM). Aggregation was continuously monitored on a strip-chart recorder and recorded as the height of the tracing at 60 sec after the addition of PAF. Secretion of [^3 H] serotonin was measured in a sample of the platelet suspension removed at 60 sec after the addition of PAF. The percent inhibition of aggregation and secretion was calculated by comparing antagonist-treated platelets with the appropriate vehicle-treated control platelets. Each combination of antagonist and PAF was repeated using different platelet preparations. IC50 values were determined by inspection of the dose-response curves.

[3] = system: PAF-induced aggregation of washed rabbit platelets; experiment: PAF-induced platelet aggregation; assay type: cell-based; details: Oryctolagus cuniculus, antagonist 60 sec before PAF (0.2 nM to 0.2 μM), read 60 sec after PAF
Method: as §1

Sequence of PAF receptor (Human Platelet Membrane Receptors) (P25105 whole entry): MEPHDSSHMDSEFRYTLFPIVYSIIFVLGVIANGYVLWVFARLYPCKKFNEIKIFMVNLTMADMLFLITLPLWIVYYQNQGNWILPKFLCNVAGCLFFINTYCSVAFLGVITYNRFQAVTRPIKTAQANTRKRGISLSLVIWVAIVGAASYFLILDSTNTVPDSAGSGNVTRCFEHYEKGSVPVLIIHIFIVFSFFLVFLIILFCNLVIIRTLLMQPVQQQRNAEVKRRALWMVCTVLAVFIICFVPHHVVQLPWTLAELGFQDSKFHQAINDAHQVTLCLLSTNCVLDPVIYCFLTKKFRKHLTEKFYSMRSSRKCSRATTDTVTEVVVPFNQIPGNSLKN

| Structure (SMILES) | IC50 [1] [µM] | IC50 [2] [µM] | IC50 [3] [µM] | inhibition at 50 µM ([1]; read-out: inhibited ^3 H-PAF binding (triazolam compound inhibition control)) [%] |
| --- | --- | --- | --- | --- |
| O=C(c1ccc(Cn2ccc3ncnc-3c2)nc1)N(C1CCCC1)C1CCCC1 [Example 1, N,N-dicyclopentyl-6-(5H-imidazo[4,5-c]pyridin-5-yl-methyl)-3-pyridinecarboxamide] | 0.88 |  |  |  |
| CN(C(=O)c1ccc(Cn2ccc3ncnc-3c2)o1)C1CCCCC1 [Example 2, N-cyclohexyl-5-[(5H-imidazo[4,5-c]pyridin-5-yl)methyl]N-methyl-2-furancarboxamide] |  | 50 | ~100 |  |
| O=C(c1ccc(Cn2ccc3ncnc-3c2)o1)N(C1CCCCC1)C1CCCC1 [Example 3] |  | 2.8 | 10 to 100 |  |
| Cc1nnc2n1-c1ccc(Cl)cc1C(c1ccccc1Cl)=NC2 [Triazolam, triazolam, reference compound] |  |  |  | ~50 |
